{"source": "paper PMC8333425", "about": "“Discovery of a dual Ras and ARF6 inhibitor from a GPCR endocytosis screen” (Nature Communications, 2021)", "system": "Akt activation by EGFR", "test": "Western blot of EGFR-mediated Akt activation", "format": "cell-based, human", "conditions": "for AKT activation, EGFR (p-Akt over Akt): individual experiments", "procedure": "HEK293SL cells (10^5 cells per well) were seeded in a poly-L-lysine-coated six-well plate and transiently transfected with 3 μg Flag-AT1R, HA-B2R or HA-β2AR and/or 500 ng Flag-MEK1-WT, Flag-MEK1-DD, Flag-BRAF-WT, Flag-BRAF-V600E, Flag-K-Ras-WT, Flag-K-Ras-G12V, HA-ARF6-WT, or HA-ARF6-T27N. Gαq/11 KO and βarr1/2 KO cells were seeded onto 100 mm dishes at a density of 10^6 cells per dish. Next day, cells were transfected with 3 μg AT1R alone or along with 500 ng of β-arrestin2 using PEI. After 18 h of transfection, cells were detached and re-seeded onto poly-L-lysine coated 12-well plates (~1.5–2 × 10^5cells/well) for subsequent experiments. Forty-eight hours post transfection, in a 37 °C water bath, cells were serum-starved for 30 min, pretreated with DMSO (0.1%) or compound 21/Rasarfin (50 µM or at indicated concentrations) for 30 min, then stimulated or not with the indicated ligand [AngII (1 µM), BK (1 µM), Iso (10 µM) or EGF (100 ng/ml)] at indicated times. Cells were put on ice, washed with PBS and solubilized in 2x laemmli buffer (250 mM Tris–HCl pH 6.8, 2% SDS (w/v), 10% glycerol (v/v), 0.01% bromophenol blue (w/v) and 5% β-mercaptoethanol (v/v)) by heating at 65 °C for 15 min. Lysates were resolved on 10 or 14% SDS-PAGE, transferred to nitrocellulose membranes and immunoblotted for p-ERK1/2, ERK1/2, p-Akt, Akt, HA, Myc, β-actin or FLAG. ImageLab 5.2 software was used to quantify the digital blots as fold of the phosphorylated protein over total protein, which were then normalized as indicated in the figure legends. Uncropped immunoblots are provided in the Source Data file.", "note": "Several values for one entry are separate records, joined by “and”; a condition that tells them apart may be missing. Equal entries are not always repeated."}
{"smiles": "CC(C)C(=O)N1CCN(c2ccc(NC(=O)c3cc4ccccc4o3)cc2Cl)CC1", "note": "[Compound 21]", "values": [{"measurement": "IC50", "setting": "Homo sapiens, read-out: potency for inhibition of EGFR-mediated Akt (western blot)", "result": "4 to 5", "unit": "µM"}, {"measurement": "AKT activation, EGFR (p-Akt over Akt)", "setting": "Log [Comp 21] (M) -4.3", "result": "12.9009 percent compared to DMSO and 28.9803 percent compared to DMSO and 32.6041 percent compared to DMSO"}, {"measurement": "AKT activation, EGFR (p-Akt over Akt)", "setting": "Log [Comp 21] (M) -5", "result": "21.4684 percent compared to DMSO and 57.877 percent compared to DMSO and 33.8957 percent compared to DMSO"}, {"measurement": "AKT activation, EGFR (p-Akt over Akt)", "setting": "Log [Comp 21] (M) -5.3", "result": "42.6879 percent compared to DMSO and 80.2621 percent compared to DMSO and 48.2006 percent compared to DMSO"}, {"measurement": "AKT activation, EGFR (p-Akt over Akt)", "setting": "Log [Comp 21] (M) -6", "result": "93.9059 percent compared to DMSO and 99.6926 percent compared to DMSO and 89.9021 percent compared to DMSO"}, {"measurement": "AKT activation, EGFR (p-Akt over Akt)", "setting": "Log [Comp 21] (M) -6.3", "result": "94.5153 percent compared to DMSO and 100.709 percent compared to DMSO and 97.0491 percent compared to DMSO"}, {"measurement": "AKT activation, EGFR (p-Akt over Akt)", "setting": "Log [Comp 21] (M) -7", "result": "104.373 percent compared to DMSO and 93.1512 percent compared to DMSO and 83.461 percent compared to DMSO"}]}
